# Test results reported in ChEMBL document CHEMBL1201862, “PubChem BioAssay data set” (2004).
#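 Method: 48-hour compound exposure of cells in 96-well plates, five concentrations, linear interpolation of endpoints. GI50 is the concentration that inhibits growth by half.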 Active and inactive are the calls of the source. Rule as the data show it: active = GI50 up to about 1.1 µM and inactive = higher.
# How the values were obtained:
# Assay in all cases: NCI-60 cell line screen, 48 h
# [1] = tested on: Hs-578T
# [2] = tested on: HL-60
# [3] = tested on: IGROV-1
# [4] = tested on: HCT-116
# [5] = tested on: MDA-N
# [6] = tested on: KM12
# [7] = tested on: SK-OV-3
# [8] = tested on: SK-MEL-5
# [9] = tested on: HOP-92
# [10] = tested on: SF-295
# [11] = tested on: NCI/ADR-RES
# [12] = tested on: DU-145
# [13] = tested on: A549
# [14] = tested on: HCT-15
# [15] = tested on: HT-29
# [16] = tested on: U-251
# [17] = tested on: OVCAR-3
# [18] = tested on: OVCAR-5
# [19] = tested on: MDA-MB-435
# [20] = tested on: SF-539
# [21] = tested on: SK-MEL-28
# [22] = tested on: CAKI-1
# [23] = tested on: HCC 2998
# [24] = tested on: OVCAR-4
# [25] = tested on: SK-MEL-2
# [26] = tested on: MCF7
# [27] = tested on: UO-31
# [28] = tested on: COLO 205
# [29] = tested on: Malme-3M
# [30] = tested on: M14
# [31] = tested on: EKVX
# [32] = tested on: SW-620
# [33] = tested on: SR
# [34] = tested on: SN12C
# [35] = tested on: ACHN
# [36] = tested on: LOX IMVI
# [37] = tested on: HOP-62
# [38] = tested on: NCI-H23
# [39] = tested on: MOLT-4
# [40] = tested on: UACC-257
# [41] = tested on: SNB-75
# [42] = tested on: OVCAR-8
# [43] = tested on: UACC-62
# [44] = tested on: MDA-MB-231
# [45] = tested on: 786-0
# [46] = tested on: SF-268
# [47] = tested on: BT-549
# [48] = tested on: RXF 393
# [49] = tested on: RPMI-8226
# [50] = tested on: CCRF-CEM
# [51] = tested on: T47D
# [52] = tested on: PC-3
# [53] = tested on: TK-10
# [54] = tested on: NCI-H460
# [55] = tested on: NCI-H522
# [56] = tested on: SNB-19
# [57] = tested on: NCI-H226
# [58] = tested on: K562
smiles,measurement,setting,value
Cc1cc(C)c2c(=O)n(CC(O)CN(Cc3ccccc3)CC(O)Cn3sc4nc(C)cc(C)c4c3=O)sc2n1 (stereo unspecified),GI50,[1],18.9 µM (inactive)
same,GI50,[2],33.2 µM (inactive)
same,GI50,[3],17.7 µM (inactive)
same,GI50,[4],17.3 µM (inactive)
same,GI50,[5],17.9 µM (inactive)
same,GI50,[6],17.2 µM (inactive)
same,GI50,[7],23.2 µM (inactive)
same,GI50,[8],16.4 µM (inactive)
same,GI50,[9],17.2 µM (inactive)
same,GI50,[10],22.1 µM (inactive)
same,GI50,[11],22.4 µM (inactive)
same,GI50,[12],17.9 µM (inactive)
same,GI50,[13],19.9 µM (inactive)
same,GI50,[14],17.3 µM
same,GI50,[15],19.6 µM (inactive)
same,GI50,[16],16.9 µM (inactive)
same,GI50,[17],16.2 µM (inactive)
same,GI50,[18],20.1 µM (inactive)
same,GI50,[19],17 µM (inactive)
same,GI50,[20],17.7 µM (inactive)
same,GI50,[21],27.8 µM (inactive)
same,GI50,[22],18.8 µM (inactive)
same,GI50,[23],18.8 µM (inactive)
same,GI50,[24],18.1 µM (inactive)
same,GI50,[25],17.7 µM (inactive)
same,GI50,[26],17.6 µM (inactive)
same,GI50,[27],17 µM (inactive)
same,GI50,[28],7.73 µM (inactive)
same,GI50,[29],14.3 µM (inactive)
same,GI50,[30],17.4 µM (inactive)
same,GI50,[31],22.2 µM (inactive)
same,GI50,[32],32 µM (inactive)
same,GI50,[33],8.99 µM (inactive)
same,GI50,[34],18.1 µM (inactive)
same,GI50,[35],16.5 µM (inactive)
same,GI50,[36],19.2 µM (inactive)
same,GI50,[37],14.4 µM (inactive)
same,GI50,[38],18 µM (inactive)
same,GI50,[39],3.25 µM (inactive)
same,GI50,[40],17.2 µM (inactive)
same,GI50,[41],15.5 µM (inactive)
same,GI50,[42],18.9 µM (inactive)
same,GI50,[43],16.9 µM (inactive)
same,GI50,[44],17.7 µM (inactive)
same,GI50,[45],14.6 µM (inactive)
same,GI50,[46],17.1 µM (inactive)
same,GI50,[47],23.7 µM (inactive)
same,GI50,[48],18.8 µM (inactive)
same,GI50,[49],3.61 µM (inactive)
same,GI50,[50],6.05 µM (inactive)
same,GI50,[51],18.2 µM (inactive)
same,GI50,[52],16.8 µM (inactive)
same,GI50,[53],17.4 µM (inactive)
same,GI50,[54],19.7 µM (inactive)
same,GI50,[55],10 µM (inactive)
same,GI50,[56],18.5 µM (inactive)
same,GI50,[57],18.5 µM (inactive)
same,GI50,[58],24.2 µM (inactive)
COc1ccccc1C1Nn2c(nc3ccccc3c2=O)N1c1ccc(C)cc1 (stereo unspecified),GI50,[1],10 µM (inactive)
same,GI50,[2],10.6 µM (inactive)
same,GI50,[3],6.34 µM (inactive)
same,GI50,[4],4.23 µM (inactive)
same,GI50,[5],5.83 µM (inactive)
same,GI50,[6],11.2 µM (inactive)
same,GI50,[7],3.72 µM (inactive)
same,GI50,[8],7.45 µM (inactive)
same,GI50,[9],10.4 µM (inactive)
same,GI50,[10],4.94 µM (inactive)
same,GI50,[11],9.06 µM (inactive)
same,GI50,[12],11 µM (inactive)
same,GI50,[13],6.19 µM (inactive)
same,GI50,[14],3.49 µM
same,GI50,[15],7.78 µM (inactive)
same,GI50,[16],2.04 µM (inactive)
same,GI50,[17],4.65 µM (inactive)
same,GI50,[18],10.4 µM (inactive)
same,GI50,[19],8.2 µM (inactive)
same,GI50,[20],3.51 µM (inactive)
same,GI50,[21],5.94 µM (inactive)
same,GI50,[22],7.83 µM (inactive)
same,GI50,[23],3.8 µM (inactive)
same,GI50,[24],3.08 µM (inactive)
same,GI50,[25],11.4 µM (inactive)
same,GI50,[26],6.49 µM (inactive)
same,GI50,[27],6.73 µM (inactive)
same,GI50,[28],6.65 µM (inactive)
same,GI50,[29],14.4 µM (inactive)
same,GI50,[30],10.5 µM (inactive)
same,GI50,[31],11.4 µM (inactive)
same,GI50,[32],5.28 µM (inactive)
same,GI50,[33],1.38 µM (inactive)
same,GI50,[34],5.87 µM (inactive)
same,GI50,[35],4 µM (inactive)
same,GI50,[36],7.62 µM (inactive)
same,GI50,[37],6.32 µM (inactive)
same,GI50,[38],10.9 µM (inactive)
same,GI50,[39],1.47 µM (inactive)
same,GI50,[40],16.3 µM (inactive)
same,GI50,[41],14.9 µM (inactive)
same,GI50,[42],5.11 µM (inactive)
same,GI50,[43],9.31 µM (inactive)
same,GI50,[44],5.62 µM (inactive)
same,GI50,[45],2.67 µM (inactive)
same,GI50,[46],6.85 µM (inactive)
same,GI50,[47],21.8 µM (inactive)
same,GI50,[48],10 µM (inactive)
same,GI50,[49],3.72 µM (inactive)
same,GI50,[50],1.82 µM (inactive)
same,GI50,[51],4.82 µM (inactive)
same,GI50,[52],2.71 µM (inactive)
same,GI50,[53],6.41 µM (inactive)
same,GI50,[54],3.37 µM (inactive)
same,GI50,[55],7.8 µM (inactive)
same,GI50,[56],6.59 µM (inactive)
same,GI50,[57],2.77 µM (inactive)
same,GI50,[58],7.83 µM (inactive)
